One assay has as its target T1, HDAC6 (Homo sapiens, UniProt Q9UBN7).
T1 construct: our assay that uses approximately 0.6 nM concentration of the full-length enzyme; made in house; host or cells: HEK293/T17 cells, transient transfection
T1 sequence (Q9UBN7 1-1215): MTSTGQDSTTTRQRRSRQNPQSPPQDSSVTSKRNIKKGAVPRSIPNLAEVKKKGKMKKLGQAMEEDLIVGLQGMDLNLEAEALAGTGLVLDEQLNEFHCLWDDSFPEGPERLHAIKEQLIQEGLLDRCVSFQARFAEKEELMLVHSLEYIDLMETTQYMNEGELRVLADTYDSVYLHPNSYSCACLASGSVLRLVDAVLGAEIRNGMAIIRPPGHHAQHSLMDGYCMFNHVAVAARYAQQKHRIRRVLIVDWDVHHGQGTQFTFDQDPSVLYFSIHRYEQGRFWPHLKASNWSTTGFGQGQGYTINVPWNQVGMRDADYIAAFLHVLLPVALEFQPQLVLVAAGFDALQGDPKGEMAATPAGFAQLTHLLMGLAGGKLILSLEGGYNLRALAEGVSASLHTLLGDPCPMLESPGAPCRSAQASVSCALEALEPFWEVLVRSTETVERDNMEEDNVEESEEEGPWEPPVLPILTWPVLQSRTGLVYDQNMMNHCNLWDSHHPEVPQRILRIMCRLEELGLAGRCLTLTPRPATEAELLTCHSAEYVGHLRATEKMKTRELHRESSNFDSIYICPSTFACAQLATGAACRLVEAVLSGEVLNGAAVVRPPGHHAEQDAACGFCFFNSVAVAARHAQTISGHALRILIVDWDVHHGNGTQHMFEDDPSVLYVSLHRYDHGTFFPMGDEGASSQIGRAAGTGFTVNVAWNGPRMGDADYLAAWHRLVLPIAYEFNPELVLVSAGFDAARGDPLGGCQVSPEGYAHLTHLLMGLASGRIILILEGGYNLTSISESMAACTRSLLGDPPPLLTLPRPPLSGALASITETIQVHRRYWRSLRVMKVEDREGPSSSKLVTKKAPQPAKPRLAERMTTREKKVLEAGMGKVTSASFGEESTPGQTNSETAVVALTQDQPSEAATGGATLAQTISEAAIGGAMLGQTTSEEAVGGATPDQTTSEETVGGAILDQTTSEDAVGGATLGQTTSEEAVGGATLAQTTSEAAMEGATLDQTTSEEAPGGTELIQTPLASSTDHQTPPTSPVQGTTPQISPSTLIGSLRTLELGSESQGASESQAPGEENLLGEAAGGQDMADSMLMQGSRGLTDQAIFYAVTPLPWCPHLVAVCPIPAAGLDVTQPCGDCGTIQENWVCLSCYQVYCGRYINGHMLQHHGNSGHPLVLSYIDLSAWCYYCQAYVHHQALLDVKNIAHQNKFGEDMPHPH
Kind of assay: Fluorescence-based HDAC inhibition assay, HDAC6. In kind it is biochemical. The settings on record: Table 2. The procedure: (§1) Briefly, transiently transfected cells were harvested three days post-transfection and the cell pellets resuspended in a lysis buffer (50 mM Tris, 150 mM NaCl, 10 mM KCl, 2 mM MgCl2, 10% glycerol, 0.2% NP-40, 2 Units/mL benzonase, pH 8) supplemented with a cocktail of protease inhibitors (Roche, Basel, Switzerland). Cells were lysed by sonication (30 W; 3×20 s) on ice, and the cell lysate cleared by centrifugation at 40 000×g for 30 min at 4° C. […] Purified proteins were concentrated to 1 mg/mL, aliquoted, flash-frozen in liquid nitrogen, and stored at −80° C. until further use.
(§2) Briefly, individual HDACs were preincubated with dilution series of tested inhibitors (0-100 μM) in a 384-well plate in the total volume of 40 μL for 10 min at 37° C. in a reaction buffer comprising 50 mM HEPES, 140 mM NaCl, 10 mM KCl, 1 mM TCEP, 0.1% BSA, pH 7.4. Deacetylation reaction was started by the addition of 10 μL of a 10 μM substrate into the HDAC/inhibitor mixture. Following the 30 min incubation at 37° C., the reaction was terminated by the addition of 25 μL of the trypsin solution (4 mg/mL). Fluorescence development by trypsin was carried out at 37° C. for 15 and 60 min for Ac-GAK(Ac)-AMC and Boc-Lys(TFA)-AMC substrate, respectively. […] Non-linear regression analysis was employed to calculate IC50 values using the GraphPad Prism software. […] Reactions without the enzyme or the inhibitor were used to define 0% and 100% of the HDAC activity, respectively.

The next assay addresses T2, HDAC1 (Homo sapiens, UniProt Q13547).
T2 construct: made in house; host or cells: HEK293/T17 cells, transient transfection
Kind of assay: Fluorescence-based HDAC inhibition assay, HDAC1. It is filed as biochemical. The conditions noted are these: ratio HDAC1 IC50 / HDAC6 IC50, Table 2. The procedure: as §1, §2

T2 sequence (Q13547 whole entry): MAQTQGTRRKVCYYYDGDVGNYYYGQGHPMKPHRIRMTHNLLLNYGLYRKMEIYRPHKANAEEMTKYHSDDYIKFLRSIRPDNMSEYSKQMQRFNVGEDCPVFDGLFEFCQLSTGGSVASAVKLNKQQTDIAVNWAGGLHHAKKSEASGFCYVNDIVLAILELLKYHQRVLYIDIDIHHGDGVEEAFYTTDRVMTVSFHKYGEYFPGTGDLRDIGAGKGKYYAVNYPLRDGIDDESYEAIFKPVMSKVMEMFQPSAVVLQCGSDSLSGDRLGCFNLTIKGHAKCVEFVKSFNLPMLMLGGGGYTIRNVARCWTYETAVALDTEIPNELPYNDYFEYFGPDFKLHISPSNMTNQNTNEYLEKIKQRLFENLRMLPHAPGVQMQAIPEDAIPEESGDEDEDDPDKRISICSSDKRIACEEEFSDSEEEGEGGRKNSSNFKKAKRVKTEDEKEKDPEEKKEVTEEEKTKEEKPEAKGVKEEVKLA

What is called IC50 is the concentration needed to halve the response being measured. Read a high IC50 as lower potency. Regarding `NCc1ccc(NC(=O)N(CCCCO)Cc2ccc(C(=O)O)cc2)cc1` [Compound 6d, 4-((3-(4-(Aminomethyl)phenyl)-1-(4-hydroxybutyl)ureido)methyl)benzoic acid], at HDAC6, the half-maximal inhibitory concentration (IC50) is 16.8 µM.
The same measure, in the same setting: the value for `NCc1ccc(NC(=O)N(CCCCO)Cc2ccc(C(N)=O)cc2)cc1` [Compound 6e, 4-((3-(4-(Aminomethyl)phenyl)-1-(4-hydroxybutyl)ureido)methyl)benzamide] was above 30 µM; that for `NCc1ccc(NC(=O)N(CCCCO)Cc2ccc(B(O)O)cc2)cc1` [Compound 6f, (4-((3-(4-(Aminomethyl)phenyl)-1-(4-hydroxybutyl)ureido)methyl)phenyl)boronic acid] was above 30 µM.
On to `O=C(CCCCCCC(=O)Nc1ccccc1)NO` [Vorinostat, reference compound], for which the HDAC1/6 at HDAC1 was determined as 5.
